In the oligonucleotide strings, read from the 5' end, every base follows the letter of its sugar. An asterisk marks phosphorothioate; unmarked linkages are phosphodiester. Other units and linkages are bracketed, terminal groups are in braces. A string of capitals states the bases alone. e = 2'-O-(2-methoxyethyl) (MOE); [5mC] = 5-methylcytosine; d = 2'-deoxy (DNA)
What was measured:
rat p38α mRNA [1] = assay: Inhibition of rat p38α mRNA expression in A-10 cells, Northern blot; type: cell-based; settings: Rat A-10 cells, 200 nM oligonucleotide, 24 hours
Method: Rat p38α antisense oligonucleotides were screened in Rat A-10 cells. A-10 cells (American Type Culture Collection, Manassas, Va.) were grown in high-glucose DMEM (Life Technologies, Gaithersburg, Md.) medium containing 10% fetal calf serum (FCS). Cells were treated with oligonucleotide as described in Example 2. Oligonucleotide concentration was 200 nM. mRNA was isolated 24 hours after time zero and quantitated by Northern blot as described in Example 2.

rat p38α mRNA [2] = assay: Inhibition of rat p38α mRNA expression in rat cardiac myocytes, Northern blot; type: cell-based; settings: 1 μM oligonucleotide, 24 hrs
Method: Cells were grown as described in Zechner et al. and transfected with oligonucleotide as described in Example 2. Oligonucleotide concentration was 1 μM. mRNA was isolated 24 hrs after time zero and quantitated using Northern blotting as described in Example 2. An antisense oligonucleotide targeted to JNK-2 was used as a non-specific target control.

## GoGoCoCoAsGsAsGsAsCsTsGsAsAsTsGoToAoGoT (antisense eGeGe[5mC]e[5mC]eA*dG*dA*dG*dA*d[5mC]*dT*dG*dA*dA*dT*eGeTeAeGeT) [ISIS 21846]
Rat p38α mRNA [1]
  % p38α mRNA EXPRESSION: 8%
Rat p38α mRNA [2]
  % p38α mRNA EXPRESSION: 41%
  % p38α mRNA INHIBITION: 59%
